Data as given in BigSolDB 2.1.

CCCCCCC[n+]1csc2ccccc21.F[P-](F)(F)(F)(F)F
Conditions | solubility (mole fraction)
in furfural, 272.2 K | 0.27
in furfural, 274.55 K | 0.276
in furfural, 280.85 K | 0.297
in furfural, 284.65 K | 0.318
in furfural, 291.71 K | 0.35
in furfural, 296.7 K | 0.38
in furfural, 301.2 K | 0.41
in furfural, 304.21 K | 0.433
in furfural, 307.6 K | 0.451
in furfural, 310.41 K | 0.47
in furfural, 313.72 K | 0.487
in furfural, 315.6 K | 0.503
in furfural, 318.68 K | 0.532
in furfural, 322.88 K | 0.561
in furfural, 325.58 K | 0.582
in furfural, 327.81 K | 0.601
in furfural, 329.99 K | 0.622
in furfural, 331.87 K | 0.644
in water, 278.15 K | 2.26e-05
in water, 282.35 K | 2.91e-05
in water, 288.15 K | 3.5e-05
in water, 294.15 K | 4.2e-05
in water, 300.15 K | 5.5e-05
in water, 308.15 K | 7.07e-05
in water, 313.05 K | 8.48e-05
in water, 318.15 K | 0.000106
in water, 323.15 K | 0.000124
in water, 328.15 K | 0.000155
in water, 333.15 K | 0.000186
in water, 338.05 K | 0.00023
in water, 342.75 K | 0.000272
in water, 348.45 K | 0.000311
in water, 353.15 K | 0.000357
in water, 358.15 K | 0.00041
in water, 363.35 K | 0.000464
in water, 368.55 K | 0.000521

CCCCCCCC[n+]1csc2ccccc21.F[P-](F)(F)(F)(F)F
Conditions | solubility (mole fraction)
in furfural, 271.1 K | 0.33
in furfural, 274.97 K | 0.35
in furfural, 278.47 K | 0.38
in furfural, 281.46 K | 0.396
in furfural, 285.15 K | 0.423
in furfural, 287.37 K | 0.445
in furfural, 289.48 K | 0.471
in furfural, 292.47 K | 0.5
in furfural, 296.07 K | 0.541
in furfural, 300.95 K | 0.597
in furfural, 305.47 K | 0.64
in furfural, 311.66 K | 0.711
in furfural, 314.97 K | 0.745
in furfural, 318.86 K | 0.786
in furfural, 321.52 K | 0.81
in furfural, 323.8 K | 0.829
in furfural, 327.08 K | 0.858
in water, 278.15 K | 1.79e-05
in water, 283.2 K | 2.1e-05
in water, 290.15 K | 2.61e-05
in water, 294.15 K | 3.12e-05
in water, 300.15 K | 4.01e-05
in water, 308.15 K | 5.5e-05
in water, 313.15 K | 7e-05
in water, 318.15 K | 9.11e-05
in water, 323.15 K | 0.000107
in water, 328.15 K | 0.000128
in water, 333.15 K | 0.000142
in water, 338.15 K | 0.000163
in water, 342.95 K | 0.000179
in water, 348.15 K | 0.000196
in water, 352.75 K | 0.000212
in water, 358.05 K | 0.000235
in water, 363.15 K | 0.000261
in water, 367.75 K | 0.000285

CCCCCC[n+]1csc2ccccc21.F[P-](F)(F)(F)(F)F
Conditions | solubility (mole fraction)
in furfural, 273.25 K | 0.201
in furfural, 276 K | 0.208
in furfural, 282.04 K | 0.234
in furfural, 290.19 K | 0.269
in furfural, 296.05 K | 0.297
in furfural, 301.03 K | 0.321
in furfural, 305.08 K | 0.345
in furfural, 308.23 K | 0.366
in furfural, 311.95 K | 0.385
in furfural, 315.95 K | 0.406
in furfural, 318.39 K | 0.424
in furfural, 321.62 K | 0.451
in furfural, 325.05 K | 0.479
in furfural, 327.64 K | 0.513
in furfural, 330.95 K | 0.55
in furfural, 333.5 K | 0.581
in furfural, 335.75 K | 0.616
in water, 278.15 K | 3.17e-05
in water, 282.75 K | 3.31e-05
in water, 289.15 K | 4.3e-05
in water, 294.15 K | 5.12e-05
in water, 298.15 K | 6.5e-05
in water, 303.15 K | 7.64e-05
in water, 308.15 K | 9.38e-05
in water, 313.15 K | 0.000109
in water, 318.15 K | 0.000129
in water, 323.15 K | 0.000156
in water, 328.15 K | 0.00021
in water, 330.15 K | 0.000235
in water, 333.05 K | 0.000256
in water, 338.05 K | 0.000322
in water, 342.75 K | 0.000404
in water, 347.95 K | 0.000463
in water, 352.95 K | 0.000543
in water, 357.75 K | 0.000595
in water, 362.95 K | 0.000659
in water, 367.95 K | 0.000743

CCCC[n+]1csc2ccccc21.F[P-](F)(F)(F)(F)F
Conditions | solubility (mole fraction)
in furfural, 273.3 K | 0.155
in furfural, 281.45 K | 0.185
in furfural, 288.25 K | 0.205
in furfural, 298.35 K | 0.246
in furfural, 302.93 K | 0.263
in furfural, 311 K | 0.3
in furfural, 317.62 K | 0.333
in furfural, 324.5 K | 0.364
in furfural, 331.25 K | 0.393
in water, 278.15 K | 6.76e-05
in water, 283.2 K | 8.72e-05
in water, 288.1 K | 0.000113
in water, 293.05 K | 0.000139
in water, 298.15 K | 0.000168
in water, 302.95 K | 0.000204
in water, 308.55 K | 0.000237
in water, 313.15 K | 0.000297
in water, 318.1 K | 0.000355
in water, 323 K | 0.000405
in water, 327.95 K | 0.000478
in water, 333.1 K | 0.0006
in water, 338.05 K | 0.000721
in water, 343.1 K | 0.000839
in water, 348 K | 0.001
in water, 353.15 K | 0.00116
in water, 357.9 K | 0.00142
in water, 363 K | 0.00175
in water, 367.9 K | 0.00198

CCCCC[n+]1csc2ccccc21.F[P-](F)(F)(F)(F)F
Conditions | solubility (mole fraction)
in furfural, 272.3 K | 0.085
in furfural, 277.25 K | 0.0866
in furfural, 284.65 K | 0.0981
in furfural, 290.85 K | 0.108
in furfural, 296.15 K | 0.118
in furfural, 302.85 K | 0.131
in furfural, 313.5 K | 0.151
in furfural, 321.04 K | 0.171
in furfural, 324.75 K | 0.189
in furfural, 330 K | 0.214
in furfural, 335.04 K | 0.239
in water, 278.15 K | 2.36e-05
in water, 282.35 K | 2.97e-05
in water, 290.15 K | 4.01e-05
in water, 295.15 K | 4.89e-05
in water, 302.15 K | 6.5e-05
in water, 308.15 K | 8.63e-05
in water, 313.25 K | 0.00011
in water, 318.15 K | 0.00013
in water, 323.15 K | 0.000153
in water, 328.15 K | 0.000189
in water, 330.05 K | 0.000205
in water, 333.15 K | 0.000226
in water, 338.05 K | 0.000259
in water, 342.75 K | 0.000293
in water, 348.15 K | 0.000356
in water, 353.15 K | 0.000466
in water, 357.95 K | 0.000676
in water, 363.15 K | 0.000878
in water, 368.05 K | 0.00109
